Laboratory results as given in patent publication US9695155B2, “Herbicidal substituted pyrimidinyloxy benzene compounds” (E. I. DU PONT DE NEMOURS AND COMPANY, priority 2013, dated 2017).

What was measured:
sedge, umbrella = experiment: Test C flooded paddy test; type: in vivo, Cyperus difformis; conditions: Flood, scale 0 to 100 (0 no effect, 100 complete control), 13 to 15 days
Outline: (§1)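 Under a constant 3 cm flood, test compounds went directly into the paddy water. Following 13 to 15 days of greenhouse growth, treated species and controls were compared by eye.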

barnyardgrass = experiment: Test C flooded paddy test; type: in vivo, Echinochloa crus-galli; conditions: Flood, scale 0 to 100 (0 no effect, 100 complete control), 13 to 15 days
Outline: as §1

rice = experiment: Test C flooded paddy test; type: in vivo, Oryza sativa; conditions: Flood, scale 0 to 100 (0 no effect, 100 complete control), 13 to 15 days
Outline: as §1

galium = experiment: Test A postemergence; type: in vivo, Galium aparine
Outline: (§2)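 Compounds in non-phytotoxic solvent with surfactant applied as soil spray preemergence, or postemergence to plants 2-10 cm at one- to two-leaf stage, in loam/sand. After approximately 10 days in greenhouse, injury rated visually versus untreated controls, 0 (no effect) to 100 (complete control).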

ragweed = experiment: Test A postemergence; type: in vivo, Ambrosia elatior
Outline: as §2

Italian ryegrass [1] = experiment: Test A postemergence; type: in vivo, Lolium multiflorum
Outline: as §2

Italian ryegrass [2] = experiment: Test A preemergence; type: in vivo, Lolium multiflorum
Outline: as §2

[3] = 125 g ai/ha, 0 to 100 scale where 0 is no effect and 100 is complete control
[4] = 500 g ai/ha, 0 to 100 scale where 0 is no effect and 100 is complete control
[5] = 500 g ai/ha, 0 to 100 scale, 0 no effect, 100 complete control, approx. 10 days
[6] = 31 g ai/ha, 0 to 100 scale, 0 no effect, 100 complete control
[7] = 125 g ai/ha, 0 to 100 scale, 0 no effect, 100 complete control
[8] = 31 g ai/ha, 0 to 100 scale where 0 is no effect and 100 is complete control, visual, approximately 10 days
[9] = 1000 g ai/ha, 0 to 100 scale, 0 no effect, 100 complete control
[10] = 1000 g ai/ha, 0 to 100 scale, 0 no effect, 100 complete control, approx. 10 days

Row | Structure (SMILES) | Plant response rating, Sedge, Umbrella (sedge, umbrella; 31 g ai/ha) | Plant response rating, Sedge, Umbrella (sedge, umbrella; 62 g ai/ha) | Plant response rating, Sedge, Umbrella (sedge, umbrella; 125 g ai/ha) | Plant response rating, Sedge, Umbrella (sedge, umbrella; 250 g ai/ha) | Plant response rating, Barnyardgrass (barnyardgrass; 31 g ai/ha) | Plant response rating, Barnyardgrass (barnyardgrass; 62 g ai/ha) | Plant response rating, Barnyardgrass (barnyardgrass; 125 g ai/ha) | Plant response rating, Barnyardgrass (barnyardgrass; 250 g ai/ha) | Plant response rating, Rice (rice; 31 g ai/ha) | Plant response rating, Rice (rice; 62 g ai/ha) | Plant response rating, Rice (rice; 125 g ai/ha) | Plant response rating, Rice (rice; 250 g ai/ha) | Plant response rating, Galium (galium; [4]) | Plant response rating, Ragweed (ragweed; [4]) | Plant response rating, Ryegrass, Italian (Italian ryegrass [1]; [4]) | Plant response rating, Ryegrass, Italian (Italian ryegrass [2]; [3]) | Ryegrass, Italian plant response rating (Italian ryegrass [2]; [4]) | further results
1 | Clc1cnc(Oc2ccccc2-n2cc(Cl)cn2)nc1 [Compound 3] | 0 | 0 | 20 | 70 | 0 | 0 | 0 | 0 | 0 | 0 | 0 | 0 |  |  |  |  |  | 
2 | FCc1cccc(Oc2ncc(Cl)cn2)c1-n1cc(Br)cn1 [Compound 83] |  |  |  |  |  |  |  |  |  |  |  |  | 100 | 80 | 80 | 50 |  | Plant response rating, Galium (galium; [3]): 100; Plant response rating, Ragweed (ragweed; [3]): 70; Plant response rating, Ryegrass, Italian (Italian ryegrass [1]; [3]): 50; Ryegrass, Italian plant response rating (Italian ryegrass [2]; [5]): 60
3 | Clc1cnc(Oc2cccc(Br)c2-n2cc(Br)cn2)nc1 [Compound 65] | 50 | 65 | 75 | 85 | 0 | 0 | 0 | 0 | 0 | 0 | 0 | 0 |  |  |  |  |  | 
4 | Clc1cnc(Oc2cccc(Br)c2-n2cc(Br)nn2)nc1 [Compound 129] |  |  |  |  |  |  |  |  |  |  |  |  | 100 | 90 | 90 | 10 | 30 | Galium plant response rating (galium; [3]): 100; Ragweed plant response rating (ragweed; [3]): 80; Ryegrass, Italian plant response rating (Italian ryegrass [1]; [3]): 50
5 | COc1cnn(-c2c(C#N)cccc2Oc2ncc(Cl)cn2)c1 [Compound 137] |  |  |  |  |  |  |  |  |  |  |  |  | 100 | 100 | 80 | 0 | 20 | Galium plant response rating (galium; [3]): 70; Ragweed plant response rating (ragweed; [3]): 20; Ryegrass, Italian plant response rating (Italian ryegrass [1]; [3]): 20
6 | N#Cc1cccc(Oc2ncc(Cl)cn2)c1-n1cnc(C(F)(F)F)c1 [Compound 252, 3-[(5-chloro-2-pyrimidinyl)oxy]-2-[4-(trifluoromethyl)-1H-imidazol-1-yl]benzonitrile] |  |  |  |  |  |  |  |  |  |  |  |  | 100 | 90 | 70 |  | 90 | Plant response rating, Galium (galium; [6]): 60; Plant response rating, Galium (galium; [7]): 90; Plant response rating, Ragweed (ragweed; [6]): 20; Plant response rating, Ragweed (ragweed; [7]): 70; Plant response rating, Ryegrass, Italian (Italian ryegrass [1]; [6]): 0; Plant response rating, Ryegrass, Italian (Italian ryegrass [1]; [7]): 40; Plant response rating, Ryegrass, Italian (Italian ryegrass [2]; [8]): 20; Ryegrass, Italian plant response rating (0 to 100 scale) (Italian ryegrass [2]; 125 g ai/ha): 20
7 | N#Cc1cccc(Oc2ncc(Cl)cn2)c1-n1cc(-n2ccc(C(F)(F)F)n2)cn1 [Compound 284] |  |  |  |  |  |  |  |  |  |  |  |  | 60 | 20 | 60 |  | 20 | Plant response rating, Galium (galium; [7]): 20; Plant response rating, Ragweed (ragweed; [7]): 20; Plant response rating, Ryegrass, Italian (Italian ryegrass [1]; [7]): 20; Ryegrass, Italian plant response rating (0 to 100 scale) (Italian ryegrass [2]; 125 g ai/ha): 20
8 | Cc1cnc(Oc2cccc(C#N)c2-n2cc(I)cn2)nc1 [Compound 136] |  |  |  |  |  |  |  |  |  |  |  |  | 100 | 100 | 90 | 0 | 30 | Galium plant response rating (galium; [3]): 80; Ragweed plant response rating (ragweed; [3]): 50; Ryegrass, Italian plant response rating (Italian ryegrass [1]; [3]): 30
9 | CCCOc1cnn(-c2c(C#N)cccc2Oc2ncc(Cl)cn2)c1 [Compound 150] | 0 | 50 | 75 | 85 | 0 | 0 | 0 | 0 | 0 | 0 | 0 | 0 | 100 | 60 | 100 | 20 | 50 | Galium plant response rating (galium; [3]): 90; Ragweed plant response rating (ragweed; [3]): 20; Ryegrass, Italian plant response rating (Italian ryegrass [1]; [3]): 40
10 | Fc1cccc(Oc2ncc(Cl)cn2)c1-n1cc(OCC(F)(F)F)cn1 [Compound 270] | 0 | 25 | 60 | 95 | 0 | 30 | 45 | 60 | 0 | 0 | 0 | 30 |  |  |  |  |  | Plant response rating, Galium (galium; [6]): 60; Plant response rating, Galium (galium; [7]): 90; Plant response rating, Ragweed (ragweed; [6]): 0; Plant response rating, Ragweed (ragweed; [7]): 20; Plant response rating, Ryegrass, Italian (Italian ryegrass [1]; [6]): 0; Plant response rating, Ryegrass, Italian (Italian ryegrass [1]; [7]): 30; Plant response rating, Ryegrass, Italian (Italian ryegrass [2]; [8]): 0; Ryegrass, Italian plant response rating (0 to 100 scale) (Italian ryegrass [2]; 125 g ai/ha): 10
11 | FC(F)(F)Sc1cnn(-c2ccccc2Oc2ncc(Cl)cn2)c1 [Compound 132, 5-chloro-2-[2-[4-(trifluoromethylthio)-1H-pyrazol-1-yl]phenoxy]pyrimidine] |  |  |  |  |  |  |  |  |  |  |  |  | 100 | 30 | 60 | 30 | 40 | Galium plant response rating (galium; [3]): 100; Ragweed plant response rating (ragweed; [3]): 10; Ryegrass, Italian plant response rating (Italian ryegrass [1]; [3]): 10
12 | Fc1cccc(Oc2ncc(Cl)cn2)c1-n1cc(C2CC2)nn1 [Compound 155] |  |  |  |  |  |  |  |  |  |  |  |  |  |  |  |  |  | Plant response rating, Galium (galium; [9]): 100; Plant response rating, Ragweed (ragweed; [9]): 100; Plant response rating, Ryegrass, Italian (Italian ryegrass [1]; [9]): 100; Ryegrass, Italian plant response rating (Italian ryegrass [2]; [10]): 60
13 | FCc1cccc(Oc2ncc(F)cn2)c1-n1cc(C(F)(F)F)cn1 [Compound 118] |  |  |  |  |  |  |  |  |  |  |  |  |  |  |  | 50 |  | Plant response rating, Galium (galium; [6]): 70; Plant response rating, Galium (galium; [3]): 90; Plant response rating, Ragweed (ragweed; [6]): 70; Plant response rating, Ryegrass, Italian (Italian ryegrass [1]; [6]): 20; Ryegrass, Italian plant response rating (0 to 100 scale) (Italian ryegrass [2]; 31 g ai/ha): 0
14 | N#Cc1cccc(Oc2ncc(F)cn2)c1-n1cc(Br)cn1 [Compound 62] | 0 | 50 | 90 | 100 | 0 | 0 | 0 | 40 | 15 | 15 | 15 | 25 |  |  |  |  |  | 
15 | N#Cc1cnn(-c2c(Oc3ncc(Cl)cn3)cccc2C(F)F)c1 [Compound 236] | 0 | 20 | 60 | 80 | 0 | 0 | 0 | 20 | 0 | 0 | 10 | 20 |  |  |  |  |  | 
16 | FCc1cn(-c2c(F)cccc2Oc2ncc(Cl)cn2)nn1 [Compound 154] |  |  |  |  |  |  |  |  |  |  |  |  |  |  |  |  |  | Plant response rating, Galium (galium; [9]): 100; Plant response rating, Ragweed (ragweed; [9]): 100; Plant response rating, Ryegrass, Italian (Italian ryegrass [1]; [9]): 90; Ryegrass, Italian plant response rating (Italian ryegrass [2]; [10]): 90
17 | CCOc1cn(-c2c(Br)cccc2Oc2ncc(Cl)cn2)nn1 [Compound 84] |  |  |  |  |  |  |  |  |  |  |  |  | 100 | 90 | 80 | 0 |  | Plant response rating, Galium (galium; [3]): 100; Plant response rating, Ragweed (ragweed; [3]): 50; Plant response rating, Ryegrass, Italian (Italian ryegrass [1]; [3]): 50; Ryegrass, Italian plant response rating (Italian ryegrass [2]; [5]): 20
